# Source: patent publication US11026944B2, “Compositions and methods for treating insomnia” (Eisai R&D Management Co., Ltd., priority 2014, dated 2021)
# How the values were obtained:
# [1] = tested on: subjects with primary insomnia; experiment: 001 Study Part B: polysomnography (LPS, WASO, SE); type: in vivo, human; conditions: zolpidem 10 mg single evening dose
# From the text: For Part B, 58 otherwise healthy subjects with primary insomnia were randomized across three cohorts, and stratified by gender. Part B also included an active control (zolpidem) and matching placebo. In each cohort, there were approximately 12 subjects in the compound A/zolpidem-matched placebo group, approximately four subjects in the zolpidem/compound A-matched placebo group, and approximately four subjects in the compound A-matched placebo/zolpidem-matched placebo group. Part B dosing occurred in the evening, 30 minutes prior to the sleep period. The starting dose for Part B was 3 dose levels that determined to be safe and well tolerated in Part A. Subsequent dose levels in Part B were determined based on the PD results of the first cohort in Part B and PD and safety results from at least 3 completed higher dose cohorts in Part A. Each cohort in Part B was divided into at least two groups, with dosing of each group staggered by a minimum of 2 days.
# (§1) After the initial Screening visit, eligible subjects were scheduled to return to the clinic for 2 days during the Screening Period to conduct screening/baseline PSGs. These two days occurred at least 3 days after the initial Screening visit and within a window from Day-7 to Day-6 (±2 days). The first PSG was used to screen for sleep apnea and periodic limb movements in sleep (PLMS) and serve as the first baseline PSG. The second PSG was used as the second baseline PSG. Specific PSG variables were used to determine whether subjects met PSG inclusion criteria, and the average of PSG variables from these two PSGs was used as Baseline for this PD measure. Subjects who had met PSG inclusion criteria returned to the clinic on Day-1 for additional baseline procedures and randomization. Subjects were not allowed to nap on Day 1. On the evening of Day 1, after fasting a minimum of 3 hours, study drug was administered 30 minutes prior to the subject's habitual bedtime (lights-out), as calculated from the sleep diary for the first PSG during the Screening Period. PK blood samples were collected at prespecified timepoints, and PD assessments were performed. PSG was recorded on Day 1, postdose. Subjects were administered additional PD assessments each morning on Day 1 through Day 6. These assessments included the KSS, DSST, and PVT, in order to assess daytime sleepiness, level of alertness, and ability to concentrate. The KSS and DSST were also administered 5 minutes predose and 25 minutes postdose on Day 1, just prior to lights-out. Waketime Questionnaires were administered after the PD assessments within 15 minutes of lights-on, on Day 1 to Day 6. Time and duration of naps was recorded on Day 2.
# In addition, PSG was performed during the Screening Period at Days-7 and -6 (±2 days), and postdose on Day 1. An 8-hour diagnostic PSG consisting of electroencephalogram (EEG), electrooculogram (EOG), electromyogram (EMG), ECGs, leg electrodes, and measures of respiratory function (airflow, respiratory effort, and oxygen saturation) were performed starting at the subject's habitual bedtime as determined from the sleep diary for the 3 nights immediately prior to the first PSG on Day-7 (±2 days). PSG variables from this night were used to screen for sleep apnea and PLMS. On Day-6 (±2) and postdose on Day1, standard PSGs (i.e., not including leg electrodes or measures of respiratory function other than oxygen saturation) were performed. Specified PSG variables from these two PSGs conducted during the Screening Period were used to determine whether subjects met PSG inclusion criteria. The average of PSG variables from these two PSGs conducted during the Screening Period were used as baseline PSG values. The key PD parameters such as PSG LPS, TST, SE, and WASO have been obtained from all PSG recordings.
# [2] = tested on: subjects with primary insomnia; experiment: 001 Study Part B: next day KSS, DSST, PVT; type: in vivo, human; conditions: any dose of compound A (2.5, 10, 25 mg); zolpidem 10 mg
# From the text: as §1
# Part B subjects were administered the KSS, DSST, and PVT within 15 minutes after lights-on specifically in that order, on each morning from Day 1 through Day 6, followed by the Waketime Questionnaire. The KSS and DSST were also administered 5 minutes predose and 25 minutes postdose on Day 1 (just prior to lights-out).
structure (smiles),measurement,setting,value
"Cc1ccc(-c2nc3ccc(C)cn3c2CC(=O)N(C)C)cc1 [zolpidem, reference compound]",change from Baseline in SE,[1],13%
same,"next day effects on KSS, DSST, or PVT",[2],no clinically significant next day effects
